Reference: paper PMC10675077, “Antimicrobial Properties of New Polyamines Conjugated with Oxygen-Containing Aromatic Functional Groups” (Molecules, 2023)
≈ marks a conversion by molar mass, not a printed value. Where two headings read alike, the source gives them in different places. Marks after values point to notes of the source that are not given here.

Key:
S. aureus BHI = assay: Minimal bactericidal concentration, S. aureus; type: cell-based, Staphylococcus aureus; settings: overnight incubation, plating on LB; for MBC: Staphylococcus aureus
Protocol: (§1) Once the MIC was known, the samples were prepared as described in the previous section with polyamine concentrations corresponding to the MIC and half, double, and four times its value. After overnight incubation with the microorganisms, 30 μL of a ten-fold dilution of each one was spread in LB (in the case of bacterial strains) or SC-ura (for yeast strains) plates. They were incubated for 20 h at 37 °C (bacteria) or 48 h at 30 °C (yeasts), and the level of growth was determined. […] Experiments were carried out at least three times.

E. coli = assay: Checkerboard titration synergy, E. coli; type: cell-based, Escherichia coli; settings: synergistic when FICI ≤0.5
Protocol: (§2) The combined antimicrobial activity of the test compounds with the antibacterial or antifungal control agents was performed under the same conditions used for the MIC determination and following the procedures described by Carton Herrán, Reis de Sá et al. and Zharkova et al.. For each experiment, 16 samples (4 rows × 4 columns) in a total volume of 0.5 mL were prepared in tubes using an array of combinations between the MIC value and 0 μg/mL of the compound to be tested in each row, and between the MIC value and 0 μg/mL of the reference drug in each column. In this way, a variety of mixtures with different concentrations of them alone or in combination was obtained. Briefly, 0.5 mL of a microorganism culture was added to each one of the samples, and after incubation for 24 h with shaking at the appropriate temperature (37 °C or 30 °C), the tubs were visually inspected, and the OD600 was measured. From this information, the fractional inhibitory concentration index (FICI) was calculated according to the formula FIC index = ([A]/[CMI A]) + ([B]/[CMI B]), where [A] and [B] are respective concentrations of tested polyamine and reference drug in their combination effectively inhibiting the growth of bacteria or yeast, and [MIC A] and [MIC B] are the individual MICs of the tested polyamine and reference drug when they are used alone. An interaction is considered synergistic when the FICI value is ≤0.5 [41, 42].
(§3) To confirm the data obtained in the checkerboard assay, 30 μL of a ten-fold dilution of the tubes containing concentrations of half of the MIC of each one of the compounds alone (polyamine to be tested and reference drug) and one fourth of the MIC of each one in combination were also spread in LB or SC-ura plates (according to the microorganism considered in each case) and incubated at 37 °C or 30 °C. The visualisation of these plates was performed after 24 or 48 h, respectively. All these experiments were carried out in triplicate.

E. coli JM101 = assay: Minimal bactericidal concentration, E. coli; type: cell-based, Escherichia coli; settings: overnight incubation, plating on LB, bacteriostatic if growth at 4 times the MIC; for MBC: Escherichia coli, JM101
Protocol: as §1

[1] = Cytotoxicity, flow cytometry viability assay with propidium iodide; type: cell-based, human; settings: human, Jurkat cells (human lymphocytic leukaemia, ATCC TIB-152), 24 h treatment, average of three experiments, read-out: IC50, cytotoxicity on the human Jurkat cell line
Protocol: The cytotoxicity of the compounds was assessed via flow cytometry with a viability assay using propidium iodide (PI), a DNA-binding fluorescent probe not permeant to live cells, which is commonly used to detect dead cells in a population. The human lymphocytic leukaemia Jurkat cell line (ATCC TIB-152) was obtained from the American Type Cell Culture (Sigma-Aldrich) and grown in suspension in an RPMI 1640 medium (Thermo Fisher Scientific, Waltham, MA, USA) supplemented with L-glutamine, antibiotics, and 10% heat-inactivated foetal calf serum (FCS, Thermo Fisher Scientific, Waltham, MA, USA). For the viability assay, cells were seeded in plastic 96-well plates at […] in an RPMI 1640 medium supplemented with 5% FCS. The cells were treated for 24 h with a range of concentrations of the test compounds or with the same volume of phosphate buffer (PBS) in control wells. After incubation, cell suspensions were washed, resuspended in 400 μL fresh medium, and incubated for 5 min at room temperature in the dark with 3.75 μM PI (Sigma-Aldrich). Cell viability was determined via flow cytometry using a Gallios flow cytometer (Beckman Coulter). PI fluorescence was excited with an argon-ion laser at 488 nm and collected through a 620/630 nm band-pass emission. Cellular events were discriminated from debris using forward scatter (FS) and side scatter (SS) signals. Cell aggregates were excluded from analysis based on FS-integral and FS-peak. The gates applied for population discrimination were set manually based on control samples. For each sample, 10,000 events were collected. For further analysis, the cytometric data were exported to Kaluza 2.1 software (Beckman Coulter, Brea, CA, USA). Dead cells were identified and quantified as PI-positive events. The cytotoxic potency of test compounds was quantified using their IC50 values, i.e., the compound concentration at which cell viability is inhibited by 50%, as calculated via curve fitting and determined with the correlation coefficient (R2) using GraphPad Prism 9.0 software. Experiments were carried out in triplicate.

[2] = system: Yeast (S. cerevisiae strains); assay: MIC, yeast (strain not specified); type: cell-based, Saccharomyces cerevisiae; settings: for MIC: Saccharomyces cerevisiae, read-out: MIC Yeast
Protocol: The determination of the MIC for yeast strains was carried out following a similar procedure to that of the polyamines and antifungal reference agents: Serial dilutions of each one in phosphate buffer (20 mM, pH 7.4, 0.5 mL) were prepared and mixed with a suspension of yeast cells (OD600 0.04 in SC-ura 2X (VWR, Atlanta, GA, USA), 0.5 mL). […] Experiments were carried out at least three times in all cases.

S. cerevisiae strains = assay: Minimal fungicidal concentration, S. cerevisiae strains; type: cell-based, Saccharomyces cerevisiae; settings: fungistatic = growth on SC-ura plates after incubation at four times the MIC
Protocol: as §1

BY4741/YEplac195 = assay: Checkerboard titration synergy, BY4741/YEplac195; type: cell-based, Saccharomyces cerevisiae; settings: synergistic when FICI ≤0.5
Protocol: as §2, §3

[3] = yeast strain not specified (Tables 5 and 10)

Compound | MBC (S. aureus BHI) [µg/mL] | Synergy with Ampicillin (E. coli) | Synergy with Ciprofloxacin (E. coli) | Synergy with Doxycycline (E. coli) | Synergy with Gentamicin (E. coli) | MBC (E. coli JM101) [µg/mL] | IC50 at 24 h [1] [µg/mL] | MIC [2, 3] [µg/mL] | Minimal fungicidal concentration (MFC), S. cerevisiae Strains (S. cerevisiae strains) | Synergy with Amphotericin B (BY4741/YEplac195) | Synergy with Cycloheximide (BY4741/YEplac195) | Synergy with Fluconazole (BY4741/YEplac195) | Minimal bactericidal concentration (MBC), S. aureus BHI (S. aureus BHI) | Minimal bactericidal concentration (MBC), E. coli JM101 (E. coli JM101) | MIC Yeast [2, 3] [µg/mL] | MIC [2] [µg/mL]
c1cc2nc(c1)CNCCN(CCNCc1ccc3c(c1)CCO3)CCNC2 [Compound 8a, 2-(3,6,9-triaza-1(2,6)-pyridinacyclodecaphane-6-yl)-N-((2,3-dihydrobenzofuran-5-yl)methyl)ethan-1-amine] | 400 (≈ 1050 µM) | positive results and + | - | positive results and + | positive results and + | 60 (≈ 157 µM) | 128 (≈ 335 µM) | 400 (≈ 1050 µM) |  |  |  |  |  |  |  | 
c1cc2nc(c1)CNCCN(CCNCc1ccc3c(c1)OCO3)CCNC2 [Compound 5a, 2-(3,6,9-triaza-1(2,6)-pyridinacyclodecaphane-6-yl)-N-(benzo[d][1,3]dioxol-5-ylmethyl)ethan-1-amine] | 70 (≈ 183 µM) |  |  |  |  | 10 (≈ 26.1 µM) | 37.8 (≈ 98.7 µM) | 60 (≈ 156 µM) | Fungistatic | positive results and + | Sinergy and positive results and + | Sinergy and synergic and + |  |  |  | 
N^1-(benzo[d][1,3]dioxol-5-ylmethyl)-N^3-(2-((2-((3-((benzo[d][1,3]dioxol-5-ylmethyl)amino)propyl)amino)ethyl)(2-((3-(((2,3-dihydrobenzofuran-6-yl)methyl)amino)propyl)amino)ethyl)amino)ethyl)propane-1,3-diamine [Compound 4a] |  |  |  |  |  |  |  |  | Fungistatic | positive results and + | Sinergy and positive results and + | Sinergy and synergic and + | 8 ^a µg/mL | 10 ^a µg/mL | 150 | 
Oc1ccc(CNCCN2CCNCc3cccc(n3)CNCC2)cc1 [Compound 7a] |  | - | - | - | positive results and + |  | 951 (≈ 2670 µM) |  |  |  |  |  |  | Bacteriostatic |  | 295 (≈ 830 µM)
Oc1ccccc1CNCCN1CCNCc2cccc(n2)CNCC1 [Compound 6a] | 160 (≈ 450 µM) | no synergy and - | no synergy and - | no synergy and - | no synergy and - | 10 (≈ 28.1 µM) | 98 (≈ 276 µM) | 45 (≈ 127 µM) | Fungistatic | positive results and + | positive results and + | - |  |  |  | 
